Laboratory results as given in patent publication US20240252670A1, “ANTIBODY DRUG CONJUGATE, PREPARATION METHOD THEREFOR AND APPLICATION THEREOF” (TSINGHUA UNIVERSITY, priority 2021, published 2024).

How the values were obtained:
MC38 tumor = test: Anti-tumor activity and survival in MC38 mouse tumor model; format: in vivo; settings: MC38 mice, i.p.; antibody drugs 150 μg per mouse, D18 25 μg per mouse; schedule Table 1
Source text: A. Treatment with ADC HE-S2, single administration of anti-PD-L1 antibody, D18, or anti-PD-L1 THIOMAB, and anti-PD-L1 antibody/D18 combined administration for inhibitory activity against mouse MC38 tumor growth. B. Whole animal survival study. The ordinate of the curve represents the percentage of tumor-bearing mice that remained alive after different days, and the abscissa thereof represents the number of experimental days. C. Treatment with ADC HE-S2, single administration of anti-PD-L1 antibody, D18, or anti-PD-L1 THIOMAB, and anti-PD-L1 antibody/D18 combined administration for inhibitory activity against mouse MC38 tumor growth. Student's t test was used to compare significant differences between the groups, and p<0.001 is represented by ***.
To verify the anti-cancer activity of ADC HE-S2, the inventors first made a mouse model with MC38. After the tumor was loaded, a visible tumor could be observed on the mouse surface for about one week. When the mean tumor tissue volume of the mice reached 100 mm^3, the mice were randomly grouped as follows according to the final type of drug administered: IgG isotype control antibody group (abbreviated as IgG), anti-PD-L1 antibody group (anti-PD-L1), anti-PD-L1 THIOMAB group (Thiomab), D18 group (D18), D18/anti-PD-L1 antibody combination treatment group (anti-PD-L1 & D18), and ADC HE-S2 group (ADC HE-S2), with 7-8 mice per group. The IgG isotype control antibody group, the anti-PD-L1 antibody (i.e., avelumab as described in Example 2) group, and the anti-PD-L1 THIOMAB (i.e., mutant antibody prepared in Example 2) group were administered twice a week via intraperitoneal injection of 150 μg per mouse for each time. The D18 group was administered twice a week via intraperitoneal injection of 25 μg per mouse for each time. In the D18/anti-PD-L1 antibody combination treatment group, the anti-PD-L1 antibody was dosed twice a week, 150 μg per mouse for each time; the D18 was dosed […], 25 μg per mouse for each time; in the ADC HE-S2 group, ADC HE-S2 was dosed once a week via intraperitoneal injection of 150 μg per mouse for each time; the anti-PD-L1 antibody was dosed once a week, staggered from the administration of the ADC, via intraperitoneal injection of 150 μg per mouse for each time.
Dosage: Antibody drugs, administered 150 μg per mouse for each time, and D18, administered 25 μg per mouse for each time. - means no administration on the day. * Only mice with MC38 tumor model were allowed to be administered until the 24th day, and mice with B16 tumor model were no longer administered after the 21st day.

[1] = tested on: PD-L1 positive wild-type DC 2.4 cells; test: Preliminary internalization experiment in DC cells (FACS, 10% FBS); format: cell-based, mouse; settings: wild-type DC 2.4, 10% FBS, incubation 8 h, pHrodo red labeled antibody
Procedure: (§1) PD-L1 positive wild-type DC 2.4 cells and PD-L1 negative Cd274 knockout DC 2.4 cells were cultured in a 10% FBS culture medium, anti-PD-L1 THIOMAB labeled with pHrodo™ red dye was added after the cell state was stable, and the cells were incubated overnight. The intracellular red fluorescence intensity was then analyzed by FACS to characterize the internalization level of THIOMAB.
(§2) To verify internalization of anti-PD-L1 THIOMAB on DC cells, the inventors acquired two kinds of DC cells, which were Cd274 knockout DC 2.4 cells and wild-type DC 2.4 cells, from the teacher named Tang Haidong of the School of Pharmaceutical Sciences, Tsinghua University. The Cd274 gene was a PD-L1 encoding gene, and the knocked-out DC 2.4 could not express PD-L1 protein, so the first kind of cells was PD-L1 negative DC cells; while wild-type DC 2.4 could express PD-L1, so the second kind of cells was PD-L1 positive DC cells (as shown in FIG. 12). […]
(§3) In preliminary experiments, the inventors added 10% heat-inactivated fetal bovine serum (FBS) as a blocking agent to a culture medium of DC 2.4 cells according to a conventional procedure, and detected the red fluorescence signals in the cells by FACS after incubation for 8 h, and the results are shown in FIG. 13. […]

[2] = tested on: PD-L1 negative Cd274 knockout DC 2.4 cells; test: as above; format: cell-based, mouse; settings: Cd274 knockout DC 2.4, 10% FBS, incubation 8 h, pHrodo red labeled antibody
Procedure: as §1, §2, §3

Substance: anti-PD-L1 THIOMAB: mutant avelumab, light chain V205C (SEQ ID NO: 9), heavy chain SEQ ID NO: 4; pHrodo red labeled in internalization tests
- inhibitory activity against MC38 tumor growth (MC38 tumor): slightly superior to the efficacy of the IgG isotype antibody
- proportion of red fluorescence positive cells [1]: 53.6%
- proportion of red fluorescence positive cells [2]: 52.9%
